Measured values published in publication PMC6222487 (Molecules : A Journal of Synthetic Chemistry and Natural …, 2018).
Like-named read-outs stand apart in the source and are kept apart here.

Tests used:
AChE (from electric eel) = target: T1, AChE (from electric eel) (Electrophorus electricus, UniProt O42275); test: biochemical; format: biochemical; details: for Selectivity Index = IC50 (BChE)/IC50 (AChE): IC50 BuChE/IC50 AChE; for IC50: mean ± SEM, NA = No potent inhibitory activity
T1 construct: purchased Merck & Co
Experimental: (§1) Photometric 96-well microplates made from polystyrene (Thermo Scientific, Waltham, […]. USA) were used for measurement purposes.
(§2) AChE and BuChE inhibitory activities were measured by the spectrophotometric method of Ellman, with slight modification. Briefly, all in vitro assays were performed in 0.1 M NaH2PO4/Na2HPO4 buffer, pH 7.4, using a THERMO Enzyme-labeled Instrument. The enzyme solutions were prepared to obtain 2.0 units/mL in 2.0 mL aliquots. The assay medium (1 mL) consisted of phosphate buffer (pH 7.4), 10 μL of the enzyme, 30 μL of 0.01 M DTNB, and 30 μL of substrate (ATC or BTC) at a concentration of 0.01 M. The test and reference compounds were first dissolved in DMSO (5‰) and fetal bovine serum (1‰), and then diluted in 0.1 M NaH2PO4/Na2HPO4 buffer (pH 7.4) to provide a final concentration range. The inhibitors were added to the assay solution containing enzyme, buffer, and DTNB with pre-incubation for 20 min at 37 °C, prior to the addition of the substrate. The activity was determined by measuring the increase in absorbance at 410 nm at 1 min intervals at 37 °C. The data were calculated according to the method described by Ellman et al. Each concentration was assayed in triplicate. Blanks containing all of the components except AChE were included in the analyses.

[1] = target: T2, BuChE (from equine serum) (Equus caballus, UniProt P81908); test: biochemical; details: mean ± SEM
T2 construct: purchased Merck & Co; host or cells: equine serum
Experimental: as §1, §2

Aβ (1-42) [2] = target: T3, Aβ (1-42) (Homo sapiens, UniProt P05067); test: biochemical; details: self-induced aggregation, thioflavin-T; Aβ 20 μM, 37 °C, 24 h; NA = No potent inhibitory activity
T3 construct: Aβ (1-42) peptide (Sigma-Aldrich); purchased Sigma-Aldrich
Experimental: A Thioflavin T-based fluorometric assay was performed in order to investigate the self-induced Aβ (1-42) aggregation. Briefly, compounds to be tested were firstly dissolved in DMSO to obtain a 10 mM solution and then diluted in phosphate buffer (pH 7.4) to provide a final concentration range. […] After incubation, thioflavin-T (5 μM in 50 mM glycine-NaOH buffer, pH 8.0) was added into the above 96-well microplate and the samples were diluted to a final volume of 150 μL. […] Each inhibitor was run in triplicate.

Aβ (1-42) [3] = target: T3, Aβ (1-42); test: Aβ (1-42) fibril formation monitored by transmission electron microscopy (TEM); format: biochemical; details: Aβ (1-42) 20 µM, compound 50 µM, 37 °C, 24 h
Experimental: Aβ (1-42) peptide (Sigma-Aldrich) was added into a 96-well microplate and then diluted by phosphate buffer (10 mM, pH 7.4) to provide a concentration of 100 μM solution at 4 °C before use and the sample preparation procedure was the same as that used for the Thioflavin T assay. Aliquots (5 μL) of the samples were placed on a carbon-coated copper/rhodium grid for 2 min at room temperature. Each grid was stained with phosphomolybdic acid solution (3%, 5 μL) for 2 min. After draining off the excess staining solution, the specimen was transferred for imaging by transmission electron microscopy.

AChE = target: T4, AChE (Electrophorus electricus, UniProt O42275); test: Kinetic study of AChE inhibition (Lineweaver-Burk plot); format: biochemical; details: substrate 0.1–0.4 mM
T4 construct: purchased Merck & Co
Experimental: The assay solution (100 μL) was afforded by the addition of 30 μL of DTNB (0.01 M), 10 μL of 2 units/mL AChE, and 30 μL of substrate (ATC) to the phosphate buffer (0.1 M, pH 7.0). Three different concentrations of 8q were added to the assay solution with the AChE and pre-incubated for 20 min at 37 °C, followed by the addition of substrate in different concentrations. Kinetic characterization of the hydrolysis of ATC catalysed by AChE was carried out at 410 nm. A parallel control was made with the assay solution of no inhibitor for each time. The plots were assessed by a weighted least square analysis that assumed the variance of V to be a constant percentage of V for the entire data set.
Figure 2 Determination of the inhibitory type of selected compound 8q on AChE. Merged Lineweaver-Burk reciprocal plots of AChE initial velocity with increasing substrate concentrations (0.1–0.4 mM) in the absence or presence of 8q. Lines were derived from a weighted least-squares analysis of data points.

HepG2 cells = format: cell-based; details: for Cell viability: 24 h, CCK-8; for Cytotoxicity (in words): HepG2 cells, up to 500 μM
Experimental: One of the best documented side-effects of the drug discovery and development of AD is cytotoxicity. To probe whether such a type of target compounds involves cytotoxic effects, we respectively treated HepG2 cells and SH-SY5Y cells with several concentrations of the corresponding compound. Cell viability was determined by a CCK-8 assay. […].
HepG2 cells (human hepatocellular liver carcinoma cell line from American Type Culture Collection, ATCC) were cultured in Eagle’s minimum essential medium (EMEM) supplemented with 10% heat-inactivated fetal bovine serum (FBS), and 100 U/mL of penicillin/streptomycin (Gino Biomedical Technology Co. LTD., Hangzhou, China). Cultures were seeded into flasks containing supplemented medium and maintained at 37 °C in a humidified atmosphere of 5% CO2. For assays, cells (1.0 × 10^5 cells/well) were seeded in a 96-well plate in complete medium, the medium was removed after 24 h, and cells were exposed to the increasing concentrations of compounds 8q or 8r (0, 25, 50, 125, 200, 300, 400, and 500 μM) in DMEM with no serum for a further 24 h. Cell survival was measured through a CCK-8 assay. All compounds were dissolved in pure DMSO.

SH-SY5Y cells = format: cell-based; details: for Cytotoxicity (in words): SH-SY5Y cells, up to 500 μM; for Cell viability: SH-SY5Y, 24 h, CCK-8
Experimental: To probe whether such a type of target compounds involves cytotoxic effects, we respectively treated HepG2 cells and SH-SY5Y cells with several concentrations of the corresponding compound. Cell viability was determined by a CCK-8 assay.
SH-SY5Y cells (human neuroblastoma cell line from American Type Culture Collection, ATCC, Manassas, VA, USA) were seeded into 96-well plates at a density of 4 × 10^4 cells/mL in Dulbecco’s modified Eagle’s medium (DMEM) supplemented with 10% FBS and 100 U/mL of penicillin/streptomycin (Gino Biomedical Technology Co. LTD., Hangzhou, China), and incubated in a humidified atmosphere containing 5% CO2 at 37 °C. […] After this incubation, 10 μL/well of CCK-8 (5 mg/mL) was added and incubated at 37 °C for 4 h. The optical density (OD) of each well was measured using an Epoch Microplate Spectrophotometer (BioTek Instruments, Inc., Winooski, VT, USA) with a test wavelength of 450, 630 nm.

T2 sequence (P81908 whole entry): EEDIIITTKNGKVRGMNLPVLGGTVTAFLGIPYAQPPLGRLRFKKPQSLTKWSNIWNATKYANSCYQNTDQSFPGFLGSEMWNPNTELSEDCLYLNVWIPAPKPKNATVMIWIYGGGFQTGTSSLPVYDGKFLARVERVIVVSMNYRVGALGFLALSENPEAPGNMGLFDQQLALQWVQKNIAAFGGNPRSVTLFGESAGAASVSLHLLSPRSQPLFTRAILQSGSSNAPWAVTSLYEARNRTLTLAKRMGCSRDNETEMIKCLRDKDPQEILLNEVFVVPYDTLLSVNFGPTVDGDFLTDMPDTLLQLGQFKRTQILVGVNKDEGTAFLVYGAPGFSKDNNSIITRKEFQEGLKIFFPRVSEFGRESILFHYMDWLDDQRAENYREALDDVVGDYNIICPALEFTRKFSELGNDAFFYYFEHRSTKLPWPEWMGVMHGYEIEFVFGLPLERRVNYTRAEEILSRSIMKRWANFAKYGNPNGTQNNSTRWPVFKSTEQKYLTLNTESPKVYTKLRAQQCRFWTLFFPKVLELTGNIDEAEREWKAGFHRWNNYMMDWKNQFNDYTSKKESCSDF
T1 sequence (O42275 24-633): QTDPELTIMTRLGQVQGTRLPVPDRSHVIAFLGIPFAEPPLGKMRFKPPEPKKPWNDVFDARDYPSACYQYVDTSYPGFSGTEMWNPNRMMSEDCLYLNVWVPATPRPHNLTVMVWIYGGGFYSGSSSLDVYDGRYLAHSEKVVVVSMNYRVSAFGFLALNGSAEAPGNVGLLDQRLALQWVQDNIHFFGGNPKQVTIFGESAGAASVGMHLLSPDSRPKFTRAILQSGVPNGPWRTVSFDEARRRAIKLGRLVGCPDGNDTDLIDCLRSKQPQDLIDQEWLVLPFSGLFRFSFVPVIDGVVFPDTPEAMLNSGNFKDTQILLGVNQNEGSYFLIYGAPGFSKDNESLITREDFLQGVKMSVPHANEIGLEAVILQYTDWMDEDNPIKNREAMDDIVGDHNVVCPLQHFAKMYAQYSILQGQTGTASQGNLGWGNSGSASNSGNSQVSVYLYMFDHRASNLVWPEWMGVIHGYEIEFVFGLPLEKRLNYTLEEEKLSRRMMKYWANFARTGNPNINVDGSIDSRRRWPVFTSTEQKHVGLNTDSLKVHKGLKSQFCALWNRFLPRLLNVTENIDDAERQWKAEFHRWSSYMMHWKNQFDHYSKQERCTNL
T3 sequence (P05067 672-713): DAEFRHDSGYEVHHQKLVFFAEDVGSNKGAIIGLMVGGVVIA
T4 sequence (O42275 24-633): as the sequence (O42275 24-633) above

COc1ccc(C(=O)OCCCOC(=O)c2nc(C)c(C)nc2C)cc1F [Compound 8j, 3-[(3-Fluoro-4-methoxybenzoyl)oxy]propyl 3,5,6-trimethylpyrazine-2-carboxylate]
Selectivity Index = IC50 (BChE)/IC50 (AChE) (AChE (from electric eel)): 2.97
IC50 [1]: 857 ± 2 µM
IC50 (Aβ (1-42) [2]): 7.12 ± 0.012 µM

Cc1nc(C)c(C(=O)OCCCOC(=O)c2cccc(F)c2)nc1C [Compound 8k, 3-[(3-Fluorobenzoyl)oxy]propyl 3,5,6-trimethylpyrazine-2-carboxylate]
Selectivity Index = IC50 (BChE)/IC50 (AChE) (AChE (from electric eel)): 9.49
IC50 [1]: 5490 ± 150 µM
IC50 (Aβ (1-42) [2]): 5.1 ± 0.04 µM

COc1cc(CC(=O)OCCCOC(=O)c2nc(C)c(C)nc2C)cc(OC)c1OC [Compound 8l, 3-{[(3,4,5-Trimethoxyphenyl)acetyl]oxy}propyl 3,5,6-trimethylpyrazine-2-carboxylate]
Selectivity Index = IC50 (BChE)/IC50 (AChE) (AChE (from electric eel)): 1.31 × 10^4
IC50 (AChE (from electric eel)): 0.3034 ± 0.00026 µM
IC50 [1]: 3960 ± 260 µM
IC50 (Aβ (1-42) [2]): 77.45 ± 0.029 µM

COc1ccc(/C=C/C(=O)OCCCOC(=O)c2nc(C)c(C)nc2C)cc1OC [Compound 8o, 3-{[(2E)-3-(3,4-Dimethoxyphenyl)prop-2-enoyl]oxy}propyl 3,5,6-trimethyl-pyrazine-2-carboxylate]
Selectivity Index = IC50 (BChE)/IC50 (AChE) (AChE (from electric eel)): 1.23 × 10^6
IC50 (AChE (from electric eel)): 0.00324 ± 0.0001 µM
IC50 [1]: 3970 ± 100 µM
IC50 (Aβ (1-42) [2]): 45.29 ± 0.033 µM

COc1cc(/C=C/C(=O)OCCCOC(=O)c2nc(C)c(C)nc2C)cc(OC)c1OC [Compound 8p, 3-{[(2E)-3-(3,4,5-Trimethoxyphenyl)prop-2-enoyl]oxy}propyl 3,5,6-tri-methylpyrazine-2-carboxylate]
Selectivity Index = IC50 (BChE)/IC50 (AChE) (AChE (from electric eel)): 4.30 × 10^4
IC50 (AChE (from electric eel)): 0.09351 ± 0.0002 µM
IC50 [1]: 4020 ± 30 µM
IC50 (Aβ (1-42) [2]): 71.28 ± 0.044 µM

Cc1nc(C)c(/C=C/C(=O)OCCCOC(=O)c2nc(C)c(C)nc2C)nc1C [Compound 8q, 3-{[(2E)-3-(3,5,6-Trimethylpyrazin-2-yl)prop-2-enoyl]oxy}propyl 3,5,6-trimethylpyrazine-2-carboxylate]
IC50 (AChE (from electric eel)): 0.00139 ± 0.00033 µM
IC50 [1]: 4040 ± 910 µM
IC50 (Aβ (1-42) [2]): 17.36 ± 0.027 µM
Aβ amorphous deposits seen by TEM (Aβ (1-42) [3]): could obviously alleviate the formation of Aβ amorphous deposits compared with tacrine
Aβ fibril formation seen by TEM (Aβ (1-42) [3]): no obvious Aβ fibril was detected
Inhibitory type on AChE (AChE): mixed-type inhibitor
Cell viability (HepG2 cells; HepG2, 25 µM): 96.81 ± 3.05 ^ns percentage of control
Cell viability (HepG2 cells; HepG2, 50 µM): 91.09 ± 0.99 ^ns percentage of control
Cell viability (HepG2 cells; HepG2, 125 µM): 81.19 ± 1.48 percentage of control
Cell viability (HepG2 cells; HepG2, 200 µM): 64.81 ± 0.54 percentage of control
Cell viability (HepG2 cells; HepG2, 300 µM): 66.75 ± 1.11 percentage of control
Cell viability (HepG2 cells; HepG2, 400 µM): 68.89 ± 0.51 percentage of control
Cell viability (HepG2 cells; HepG2, 500 µM): 70.10 ± 1.98 percentage of control
Cytotoxicity (in words) (HepG2 cells): no obvious cytotoxicity
Cytotoxicity (in words) (SH-SY5Y cells): no obvious cytotoxicity
Cell viability (SH-SY5Y cells; 25 µM): 104.30 ± 0.29 ^ns percentage of control
Cell viability (SH-SY5Y cells; 50 µM): 96.08 ± 0.78 ^ns percentage of control
Cell viability (SH-SY5Y cells; 125 µM): 80.25 ± 1.53 percentage of control
Cell viability (SH-SY5Y cells; 200 µM): 72.17 ±0.54 percentage of control
Cell viability (SH-SY5Y cells; 300 µM): 58.92 ± 0.70 percentage of control
Cell viability (SH-SY5Y cells; 400 µM): 55.14 ± 0.50 percentage of control
Cell viability (SH-SY5Y cells; 500 µM): 55.28 ± 0.55 percentage of control

Cc1nc(C)c(C(=O)OCCCOC(=O)c2ccccn2)nc1C [Compound 8r, 3-[(Pyridine-2-carbonyl)oxy]propyl 3,5,6-trimethylpyrazine-2-carboxylate]
IC50 (AChE (from electric eel)): 0.00025 ± 0.00039 µM
AChE inhibition potency relative to tacrine (AChE (from electric eel); stronger than tacrine): 293 times
IC50 [1]: 3300 ± 60 µM
IC50 (Aβ (1-42) [2]): 49.14 ± 0.025 µM
Cell viability (HepG2 cells; HepG2, 25 µM): 102.83 ± 0.57 ^ns percentage of control
Cell viability (HepG2 cells; HepG2, 50 µM): 88.05 ± 1.12 ^ns percentage of control
Cell viability (HepG2 cells; HepG2, 125 µM): 81.72 ± 0.87 percentage of control
Cell viability (HepG2 cells; HepG2, 200 µM): 71.10 ± 1.06 percentage of control
Cell viability (HepG2 cells; HepG2, 300 µM): 71.10 ± 0.80 percentage of control
Cell viability (HepG2 cells; HepG2, 400 µM): 68.85 ± 1.11 percentage of control
Cell viability (HepG2 cells; HepG2, 500 µM): 68.31 ± 0.53 percentage of control
Cytotoxicity (in words) (HepG2 cells): no obvious cytotoxicity
Cytotoxicity (in words) (SH-SY5Y cells): no obvious cytotoxicity
Cell viability (SH-SY5Y cells; 25 µM): 94.51 ± 0.45 ^ns percentage of control
Cell viability (SH-SY5Y cells; 50 µM): 91.46 ± 0.29 ^ns percentage of control
Cell viability (SH-SY5Y cells; 125 µM): 83.23 ± 0.78 percentage of control
Cell viability (SH-SY5Y cells; 200 µM): 83.26 ± 2.74 percentage of control
Cell viability (SH-SY5Y cells; 300 µM): 68.43 ± 0.48 percentage of control
Cell viability (SH-SY5Y cells; 400 µM): 62.68 ± 0.56 percentage of control
Cell viability (SH-SY5Y cells; 500 µM): 66.38 ± 1.57 percentage of control
